Results published in patent US20250367308A1, “LIGAND-DRUG CONJUGATE OF CAMPTOTHECIN ANALOGS, INTERMEDIATES, PREPARATION METHOD THEREFOR, PHARMACEUTICAL COMPOSITION AND APPLICATION THEREOF” (SHANGHAI MICURX PHARMACEUTICAL CO.,LTD., priority 2022, published 2025).

System: Human lung adenocarcinoma cell line A549
Test: In vitro cytotoxicity test of camptothecin payloads (CellTiter-Glo)
Format: cell-based
Details: for IC50: Homo sapiens, A549, 72 h, read-out: A549 Cytotoxicity IC50 (nM)
Description: Human lung adenocarcinoma cell line A549 was used to evaluate the cytotoxicity of small molecule fragment of the present invention. A549 cells were seeded to a 96-well plate at 2000 cells per well.

Row | Compound | IC50 [nM] | relative A549 cytotoxic potency in words (human, 3 days)
1 | CC[C@@]1(O)C(=O)OCc2c1cc1n(c2=O)Cc2c-1nc1cc(F)c(OC)cc1c2CN1CCC([C@@H](C)O)CC1 [Example 41, (S)-4-ethyl-8-fluoro-4-hydroxy-11-((4-((R)-1-hydroxyethyl)piperidin-1-yl)methyl)-9-methoxy-1,12-dihydro-14H-pyrano[3′,4′:6,7] indolizino[1,2-b]quinoline-3,14(4H)-dione] | 31 | –
2 | CC[C@@]1(O)C(=O)OCc2c1cc1n(c2=O)Cc2c-1nc1cc(F)c(C)cc1c2CN1CCCC(CO)C1 (stereo partly drawn) [Example 12, (4S)-4-ethyl-8-fluoro-4-hydroxy-11-((3-(hydroxymethyl)piperidin-1-yl)methyl)-9-methyl-1H-pyrano[3′,4′:6,7] indolizino[1,2-b]quinoline-3,14(4H,12H)-dione] | 90 | less potent than Example 17
3 | CC[C@@]1(O)C(=O)OCc2c1cc1n(c2=O)Cc2c-1nc1cc(F)c(C)c3c1c2[C@@H](NC(=O)CO)CC3 [Dxd, reference compound] | 78 | –
4 | CC[C@@]1(O)C(=O)OCc2c1cc1n(c2=O)Cc2c-1nc1cc(F)c(C)cc1c2CN1CCC(C(O)C(C)C)CC1 (stereo partly drawn) [Example 28, (4S)-4-ethyl-8-fluoro-4-hydroxy-11-((4-(1-hydroxy-2-methylpropyl)piperidin-1-yl)methyl)-9-methyl-1H-pyrano[3′,4′:6,7] indolizino[1,2-b]quinoline-3,14(4H,12H)-dione] | 74.2 | –
5 | CC[C@@]1(O)C(=O)OCc2c1cc1n(c2=O)Cc2c-1nc1ccc(OCC(=O)N3CCCCC3)cc1c2CN1CCC([C@@H](C)O)CC1 [Example 40, (S)-4-ethyl-4-hydroxy-11-((4-((R)-1-hydroxyethyl)piperidin-1-yl)methyl)-9-(2-oxo-2-(piperidin-1-yl)ethoxy)-1,12-dihydro-14H-pyrano[3′,4′:6,7] indolizino[1,2-b]quinoline-3,14(4H)-dione] | 1290 | –
6 | CC[C@@]1(O)C(=O)OCc2c1cc1n(c2=O)Cc2c-1nc1cc(F)c(C)cc1c2CN1CCCC1(C)CO (stereo partly drawn) [Example 21, (4S)-4-ethyl-8-fluoro-4-hydroxy-11-((2-(hydroxymethyl)-2-methylpyrrolidin-1-yl)methyl)-9-methyl-1H-pyrano[3′,4′:6,7] indolizino[1,2-b]quinoline-3,14(4H,12H)-dione] | 55 | –
7 | CC[C@@]1(O)C(=O)OCc2c1cc1n(c2=O)Cc2c-1nc1cc(F)c(C)cc1c2CN1CC(O)C1 [Example 9, (S)-4-ethyl-8-fluoro-4-hydroxy-11-((3-hydroxyazetidin-1-yl)methyl)-9-methyl-1H-pyrano[3′,4′:6,7] indolizino[1,2-b]quinoline-3,14(4H,12H)-dione] | 550 | –
8 | CC[C@@]1(O)C(=O)OCc2c1cc1n(c2=O)Cc2c-1nc1cc(F)c(C)cc1c2CN1CCC(C(O)C(F)(F)F)CC1 (stereo partly drawn) [Example 29, (4S)-4-ethyl-8-fluoro-4-hydroxy-9-methyl-11-((4-(2,2,2-trifluoro-1-hydroxyethyl)piperidin-1-yl)methyl)-1H-pyrano[3′,4′:6,7] indolizino[1,2-b]quinoline-3,14(4H,12H)-dione] | 29.8 | –
9 | CC[C@@]1(O)C(=O)OCc2c1cc1n(c2=O)Cc2c-1nc1cc(F)c(C)cc1c2CN1CCC(CO)C1 (stereo partly drawn) [Example 8, (4S)-4-ethyl-8-fluoro-4-hydroxy-11-((3-(hydroxymethyl)pyrrolidin-1-yl)methyl)-9-methyl-1H-pyrano[3′,4′:6,7] indolizino[1,2-b]quinoline-3,14(4H,12H)-dione] | 82 | –
10 | CC[C@@]1(O)C(=O)OCc2c1cc1n(c2=O)Cc2c-1nc1cc3c(cc1c2CN1CCC2(CC1)CC(O)C2)OCCO3 [Example 44] | 30 | –
